Columns and labels:
Human δ-opioid (DOP) = target: T1, Human δ-opioid (DOP) (Homo sapiens, UniProt P41143); experiment: Radioligand binding, human δ-opioid (DOP) membranes, FlashPlate, [3H]-Bremazocine; settings: compound at 10 μM; for A1 radioligand binding inhibition: human δ-opioid (DOP) membranes
T1 construct: purchased Perkin Elmer Biosignal
Summary of the method: (§1)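 Cloned human receptor membranes were coated onto FlashPlate wells and incubated with radioligand and compound (added from a 0.5 mM DMSO daughter plate) for 1 hour at room temperature in the dark. Scintillation counting gave percent inhibition, with DMSO defining total and reference ligand defining non-specific binding.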

Human κ-Opioid (KOP) = target: T2, Human κ-Opioid (KOP) (Homo sapiens, UniProt P41145); experiment: Radioligand binding, human κ-opioid (KOP) membranes, filtration, [3H]-Diprenorphine; settings: compound at 10 μM; for A2 radioligand binding inhibition: human κ-opioid (KOP) membranes
T2 construct: purchased Perkin Elmer Biosignal
Summary of the method: (§2)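 Membranes from cloned human receptors were incubated with compound and radioligand for 1 hour at room temperature. Bound ligand was collected on 0.3% PEI-soaked filters, washed with cold 50 mM Tris-HCl pH 7.4, and counted by scintillation. Percent inhibition was computed against DMSO totals and reference-ligand nonspecific wells.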

Human Melanocortin (MC3) = target: T3, Human Melanocortin (MC3) (Homo sapiens, UniProt P41968); experiment: Radioligand binding, human melanocortin MC3 membranes, FlashPlate, [125I]-NDP-αMSH; settings: compound at 10 μM; for A3 radioligand binding inhibition: human melanocortin MC3 membranes
T3 construct: purchased Perkin Elmer Biosignal
Summary of the method: as §1

Human Melanocortin (MC4) = target: T4, Human Melanocortin (MC4) (Homo sapiens, UniProt P32245); experiment: Radioligand binding, human melanocortin MC4 membranes, FlashPlate, [125I]-NDP-αMSH; settings: compound at 10 μM; for A4 radioligand binding inhibition: human melanocortin MC4 membranes
T4 construct: purchased Perkin Elmer Biosignal
Summary of the method: as §1

Human melanocortin (MC5) = target: T5, Human melanocortin (MC5) (Homo sapiens, UniProt P33032); experiment: Radioligand binding, human melanocortin MC5 membranes, FlashPlate, [125I]-NDP-αMSH; settings: compound at 10 μM; for A5 radioligand binding inhibition: human melanocortin MC5 membranes
T5 construct: purchased Perkin Elmer Biosignal
Summary of the method: as §1

[1] = target: T6, Human melanin-concentrating hormone (MCH1) (Homo sapiens, UniProt Q99705); experiment: Radioligand binding, human melanin-concentrating hormone MCH1 membranes, FlashPlate, [125I]-S36057; settings: compound at 10 μM; for A6 radioligand binding inhibition: human MCH1 membranes; for A6: inhibition of radioligand binding, human melanin-concentrating hormone (MCH1): [125I]-S36057
T6 construct: purchased Perkin Elmer Biosignal
Summary of the method: as §1

Human μ-opioid (MOP) = target: T7, Human μ-opioid (MOP) (Homo sapiens, UniProt P35372); experiment: Radioligand binding, human μ-opioid (MOP) membranes, FlashPlate, [3H]-Naloxone; settings: compound at 10 μM; for A7 radioligand binding inhibition: human μ-opioid (MOP) membranes
T7 construct: purchased Perkin Elmer Biosignal
Summary of the method: as §1

Human neurokinin (NK1) = target: T8, Human neurokinin (NK1) (Homo sapiens, UniProt P25103); experiment: Radioligand binding, human neurokinin NK1 membranes, filtration, [125I]-Substance P; settings: compound at 10 μM; for A8 radioligand binding inhibition: human neurokinin NK1 membranes
T8 construct: purchased Perkin Elmer Biosignal
Summary of the method: as §2

[2] = target: T9, Human neuropeptide Y (NPY-Y1) (Homo sapiens, UniProt P25929); experiment: Radioligand binding, human neuropeptide Y NPY-Y1 membranes, FlashPlate, [125I]-PYY; settings: compound at 10 μM
T9 construct: purchased Perkin Elmer Biosignal
T9 sequence (P25929 1-384): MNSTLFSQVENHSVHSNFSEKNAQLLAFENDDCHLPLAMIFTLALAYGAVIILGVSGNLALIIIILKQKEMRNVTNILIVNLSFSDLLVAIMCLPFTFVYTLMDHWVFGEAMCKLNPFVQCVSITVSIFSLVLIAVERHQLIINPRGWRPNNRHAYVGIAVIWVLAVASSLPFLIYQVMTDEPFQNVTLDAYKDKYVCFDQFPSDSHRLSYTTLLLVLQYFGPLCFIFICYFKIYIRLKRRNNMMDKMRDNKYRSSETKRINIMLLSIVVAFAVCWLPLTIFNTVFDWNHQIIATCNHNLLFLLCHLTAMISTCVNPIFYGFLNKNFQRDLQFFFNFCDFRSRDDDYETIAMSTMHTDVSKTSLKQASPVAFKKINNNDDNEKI
Summary of the method: as §1

Human opioid (ORL1) = target: T10, Human opioid (ORL1) (Homo sapiens, UniProt P41146); experiment: Radioligand binding, human opioid ORL1 membranes, FlashPlate, [125I]-Nociceptin; settings: compound at 10 μM
T10 construct: purchased Perkin Elmer Biosignal
Summary of the method: as §1

Mouse urotensin (mUR2) = target: T11, Mouse urotensin (mUR2) (Mus musculus, UniProt Q8VIH9); experiment: Radioligand binding, mouse urotensin mUR2 membranes, FlashPlate, [125I]-Urotensin II; settings: compound at 10 μM; for A11 radioligand binding inhibition: mouse urotensin mUR2 membranes
T11 construct: purchased Perkin Elmer Biosignal
T11 sequence (Q8VIH9 1-385): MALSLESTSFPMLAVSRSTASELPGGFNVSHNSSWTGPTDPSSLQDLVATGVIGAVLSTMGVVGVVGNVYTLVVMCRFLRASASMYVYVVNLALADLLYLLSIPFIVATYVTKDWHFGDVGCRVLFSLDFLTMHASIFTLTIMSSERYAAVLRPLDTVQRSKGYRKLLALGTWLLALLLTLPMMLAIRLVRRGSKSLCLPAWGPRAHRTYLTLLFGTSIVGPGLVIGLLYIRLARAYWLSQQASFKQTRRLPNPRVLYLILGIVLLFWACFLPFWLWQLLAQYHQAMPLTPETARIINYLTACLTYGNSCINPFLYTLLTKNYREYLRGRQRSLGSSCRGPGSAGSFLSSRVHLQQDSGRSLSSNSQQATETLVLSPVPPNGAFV
Summary of the method: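 Cloned mouse urotensin (mUR2) receptor membranes from Perkin Elmer Biosignal were immobilized in FlashPlate microplates using a proprietary coating. Each well got 19.5 μl buffer, then 0.5 μl of DMSO, reference ligand, or compound. Adding 5 μl of [125I]-Urotensin II, diluted to 5× final concentration in binding buffer, started binding. Plates were sealed with TopSeal-A and incubated 1 hour at room temperature in the dark. Wells were counted for 30 seconds each on a TopCount after a 60-second delay, and percentage inhibition was calculated.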

T8 sequence (P25103 whole entry): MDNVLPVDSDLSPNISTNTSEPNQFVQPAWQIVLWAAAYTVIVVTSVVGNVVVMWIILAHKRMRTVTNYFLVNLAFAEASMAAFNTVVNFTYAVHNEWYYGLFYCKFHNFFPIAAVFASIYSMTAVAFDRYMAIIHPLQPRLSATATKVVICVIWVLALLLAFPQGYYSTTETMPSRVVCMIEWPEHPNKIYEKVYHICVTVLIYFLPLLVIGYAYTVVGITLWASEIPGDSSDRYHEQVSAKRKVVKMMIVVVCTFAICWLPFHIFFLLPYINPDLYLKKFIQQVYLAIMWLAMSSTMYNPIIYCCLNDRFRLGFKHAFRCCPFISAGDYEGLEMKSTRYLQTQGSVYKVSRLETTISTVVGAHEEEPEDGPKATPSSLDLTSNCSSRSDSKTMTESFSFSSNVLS
T6 sequence (Q99705 whole entry): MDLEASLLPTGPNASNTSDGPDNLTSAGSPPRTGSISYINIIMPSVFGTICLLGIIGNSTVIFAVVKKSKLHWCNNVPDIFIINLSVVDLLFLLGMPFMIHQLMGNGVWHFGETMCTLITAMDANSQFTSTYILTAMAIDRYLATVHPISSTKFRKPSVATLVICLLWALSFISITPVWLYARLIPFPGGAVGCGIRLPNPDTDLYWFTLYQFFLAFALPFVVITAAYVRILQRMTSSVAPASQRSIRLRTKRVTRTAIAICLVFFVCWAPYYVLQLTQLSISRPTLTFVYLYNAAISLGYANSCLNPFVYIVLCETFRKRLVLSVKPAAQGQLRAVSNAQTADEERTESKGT
T5 sequence (P33032 whole entry): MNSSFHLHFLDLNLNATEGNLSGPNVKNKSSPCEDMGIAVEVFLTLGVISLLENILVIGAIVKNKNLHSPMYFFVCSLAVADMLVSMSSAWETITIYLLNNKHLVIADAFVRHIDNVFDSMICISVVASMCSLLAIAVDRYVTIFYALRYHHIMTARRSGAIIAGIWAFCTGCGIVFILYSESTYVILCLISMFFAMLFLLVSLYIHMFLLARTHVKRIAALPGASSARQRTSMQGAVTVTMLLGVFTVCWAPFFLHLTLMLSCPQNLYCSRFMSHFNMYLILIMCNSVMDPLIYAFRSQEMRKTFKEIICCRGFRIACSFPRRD
T4 sequence (P32245 whole entry): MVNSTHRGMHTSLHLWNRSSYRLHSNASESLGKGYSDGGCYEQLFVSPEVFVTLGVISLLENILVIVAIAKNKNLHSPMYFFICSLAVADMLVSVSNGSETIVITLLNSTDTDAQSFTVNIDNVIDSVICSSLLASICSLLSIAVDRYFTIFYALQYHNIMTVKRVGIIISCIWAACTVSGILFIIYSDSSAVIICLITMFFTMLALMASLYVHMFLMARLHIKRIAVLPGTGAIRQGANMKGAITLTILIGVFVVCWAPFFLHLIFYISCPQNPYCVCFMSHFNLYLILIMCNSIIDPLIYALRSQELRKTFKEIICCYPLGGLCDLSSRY
T1 sequence (P41143 whole entry): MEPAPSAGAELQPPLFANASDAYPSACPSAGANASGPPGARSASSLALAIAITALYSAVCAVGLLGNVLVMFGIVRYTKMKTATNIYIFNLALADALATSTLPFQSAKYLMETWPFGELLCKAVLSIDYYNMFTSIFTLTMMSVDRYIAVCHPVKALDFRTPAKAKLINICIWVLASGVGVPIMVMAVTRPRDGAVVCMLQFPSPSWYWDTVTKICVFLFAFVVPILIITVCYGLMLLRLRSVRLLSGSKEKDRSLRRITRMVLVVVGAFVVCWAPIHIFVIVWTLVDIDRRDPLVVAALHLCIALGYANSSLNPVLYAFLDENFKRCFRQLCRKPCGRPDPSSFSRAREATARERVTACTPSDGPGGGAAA
T2 sequence (P41145 whole entry): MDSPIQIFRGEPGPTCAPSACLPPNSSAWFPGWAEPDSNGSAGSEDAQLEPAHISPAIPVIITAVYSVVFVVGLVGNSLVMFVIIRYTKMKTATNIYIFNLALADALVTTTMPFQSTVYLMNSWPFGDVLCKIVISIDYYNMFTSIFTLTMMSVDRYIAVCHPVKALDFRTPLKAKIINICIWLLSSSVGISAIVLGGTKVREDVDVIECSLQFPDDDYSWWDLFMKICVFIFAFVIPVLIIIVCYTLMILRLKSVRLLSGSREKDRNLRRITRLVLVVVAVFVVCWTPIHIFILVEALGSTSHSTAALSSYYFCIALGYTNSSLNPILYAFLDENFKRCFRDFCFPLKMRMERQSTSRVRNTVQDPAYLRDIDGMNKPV
T10 sequence (P41146 whole entry): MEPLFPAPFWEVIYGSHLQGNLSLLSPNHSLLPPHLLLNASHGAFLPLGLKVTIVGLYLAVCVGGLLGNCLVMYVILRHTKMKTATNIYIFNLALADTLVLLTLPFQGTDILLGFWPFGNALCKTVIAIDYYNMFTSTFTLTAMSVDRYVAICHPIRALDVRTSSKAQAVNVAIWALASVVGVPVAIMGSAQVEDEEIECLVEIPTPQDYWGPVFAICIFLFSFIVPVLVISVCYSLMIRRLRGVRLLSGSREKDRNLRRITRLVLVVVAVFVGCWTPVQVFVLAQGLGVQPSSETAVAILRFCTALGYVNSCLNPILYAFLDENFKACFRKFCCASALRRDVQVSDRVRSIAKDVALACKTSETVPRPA
T3 sequence (P41968 whole entry): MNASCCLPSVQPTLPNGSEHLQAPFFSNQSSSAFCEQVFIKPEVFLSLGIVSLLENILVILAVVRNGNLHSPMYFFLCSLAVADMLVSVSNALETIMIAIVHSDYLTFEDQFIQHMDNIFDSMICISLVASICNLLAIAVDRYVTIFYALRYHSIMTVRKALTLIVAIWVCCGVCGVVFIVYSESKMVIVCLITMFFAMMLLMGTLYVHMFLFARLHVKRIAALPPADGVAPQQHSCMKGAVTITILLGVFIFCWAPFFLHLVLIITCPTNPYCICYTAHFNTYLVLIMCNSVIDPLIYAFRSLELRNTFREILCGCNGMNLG
T7 sequence (P35372 whole entry): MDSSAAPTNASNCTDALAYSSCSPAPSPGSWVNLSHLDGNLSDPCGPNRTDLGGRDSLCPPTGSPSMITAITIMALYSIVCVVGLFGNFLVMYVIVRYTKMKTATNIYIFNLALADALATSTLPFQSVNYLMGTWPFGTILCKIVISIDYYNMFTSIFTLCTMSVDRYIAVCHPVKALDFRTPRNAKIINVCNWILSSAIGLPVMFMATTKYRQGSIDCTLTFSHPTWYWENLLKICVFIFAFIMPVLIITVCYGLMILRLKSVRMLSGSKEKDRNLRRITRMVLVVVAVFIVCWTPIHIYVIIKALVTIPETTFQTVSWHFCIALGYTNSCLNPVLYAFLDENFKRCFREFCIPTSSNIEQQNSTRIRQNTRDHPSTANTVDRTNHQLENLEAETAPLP

Row | SMILES | A1 radioligand binding inhibition (Human δ-opioid (DOP)) | A2 radioligand binding inhibition (Human κ-Opioid (KOP)) | A3 radioligand binding inhibition (Human Melanocortin (MC3)) | A4 radioligand binding inhibition (Human Melanocortin (MC4)) | A5 radioligand binding inhibition (Human melanocortin (MC5)) | A6 radioligand binding inhibition [1] | A7 radioligand binding inhibition (Human μ-opioid (MOP)) | A8 radioligand binding inhibition (Human neurokinin (NK1)) | A9 radioligand binding inhibition ([2]; human NPY-Y1 membranes) | A10 radioligand binding inhibition (Human opioid (ORL1); human ORL1 membranes) | A11 radioligand binding inhibition (Mouse urotensin (mUR2)) | A1: inhibition of radioligand binding, human δ-opioid (DOP) (Human δ-opioid (DOP); [3H]-Bremazocine) | A2: inhibition of radioligand binding, human κ-opioid (KOP) (Human κ-Opioid (KOP); [3H]-Diprenorphine) | A4: inhibition of radioligand binding, human melanocortin (MC4) (Human Melanocortin (MC4); [125I]-NDP-αMSH) | A5: inhibition of radioligand binding, human melanocortin (MC5) (Human melanocortin (MC5); [125I]-NDP-αMSH) | A6: inhibition of radioligand binding, human melanin-concentrating hormone (MCH1) [1] | A7: inhibition of radioligand binding, human μ-opioid (MOP) (Human μ-opioid (MOP); [3H]-Naloxone) | A8: inhibition of radioligand binding, human neurokinin (NK1) (Human neurokinin (NK1); [125I]-Substance P) | A9: inhibition of radioligand binding, human neuropeptide Y (NPY-Y1) ([2]; [125I]-PYY) | A10: inhibition of radioligand binding, human opioid (ORL1) (Human opioid (ORL1); [125I]-Nociceptin) | further results
1 | COC[C@H]1OC(OCc2ccc(Cl)cc2)[C@H](NC(=O)CCNC(=N)N)[C@@H](OCc2ccccc2)[C@@H]1O (stereo partly shown) [compound 34] | − (“−” indicates less than 50% inhibition at 10 μM) | − (“−” indicates less than 50% inhibition at 10 μM) | − (“−” indicates less than 50% inhibition at 10 μM) | − (“−” indicates less than 50% inhibition at 10 μM) | − (“−” indicates less than 50% inhibition at 10 μM) | − (“−” indicates less than 50% inhibition at 10 μM) | − (“−” indicates less than 50% inhibition at 10 μM) | + (“+” indicates greater than 50% inhibition at 10 μM) | − (“−” indicates less than 50% inhibition at 10 μM) | − (“−” indicates less than 50% inhibition at 10 μM) | − (“−” indicates less than 50% inhibition at 10 μM) |  |  |  |  |  |  |  |  |  | 
2 | N=C(N)NCC(=O)NC1C(OCc2ccc(-c3ccccc3)cc2)OC(COCc2ccc3ccccc3c2)C(O)C1OCc1ccc(Cl)cc1 (stereo not shown) [compound 399] |  |  |  |  |  |  |  |  |  |  |  |  |  |  |  |  |  |  |  |  | A1: inhibition of radioligand binding (Human δ-opioid (DOP); [3H]-Bremazocine, human DOP membranes): − (“−” indicates less than 50% inhibition at 10 μM); A2: inhibition of radioligand binding (Human κ-Opioid (KOP); [3H]-Diprenorphine, human KOP membranes): − (“−” indicates less than 50% inhibition at 10 μM); A3: inhibition of radioligand binding (Human Melanocortin (MC3); [125I]-NDP-αMSH, human MC3 membranes): + (“+” indicates greater than 50% inhibition at 10 μM); A4: inhibition of radioligand binding (Human Melanocortin (MC4); [125I]-NDP-αMSH, human MC4 membranes): + (“+” indicates greater than 50% inhibition at 10 μM); A5: inhibition of radioligand binding (Human melanocortin (MC5); [125I]-NDP-αMSH, human MC5 membranes): + (“+” indicates greater than 50% inhibition at 10 μM); A6: inhibition of radioligand binding ([1]; [125I]-S36057, human MCH1 membranes): − (“−” indicates less than 50% inhibition at 10 μM); A7: inhibition of radioligand binding (Human μ-opioid (MOP); [3H]-Naloxone, human MOP membranes): − (“−” indicates less than 50% inhibition at 10 μM); A8: inhibition of radioligand binding (Human neurokinin (NK1); [125I]-Substance P, human NK1 membranes): + (“+” indicates greater than 50% inhibition at 10 μM); A9: inhibition of radioligand binding ([2]; [125I]-PYY, human NPY-Y1 membranes): − (“−” indicates less than 50% inhibition at 10 μM); A10: inhibition of radioligand binding (Human opioid (ORL1); [125I]-Nociceptin, human ORL1 membranes): − (“−” indicates less than 50% inhibition at 10 μM); A11: inhibition of radioligand binding (Mouse urotensin (mUR2); [125I]-Urotensin II, mouse mUR2 membranes): − (“−” indicates less than 50% inhibition at 10 μM)
3 | COC[C@H]1OC(OCCc2ccccc2)[C@H](NC(=O)CCCNC(=N)N)[C@@H](OCc2ccc(-c3ccccc3)cc2)[C@@H]1O (stereo partly shown) [compound 43] | − (“−” indicates less than 50% inhibition at 10 μM) | + (“+” indicates greater than 50% inhibition at 10 μM) | + (“+” indicates greater than 50% inhibition at 10 μM) | + (“+” indicates greater than 50% inhibition at 10 μM) | + (“+” indicates greater than 50% inhibition at 10 μM) | + (“+” indicates greater than 50% inhibition at 10 μM) | + (“+” indicates greater than 50% inhibition at 10 μM) | + (“+” indicates greater than 50% inhibition at 10 μM) | − (“−” indicates less than 50% inhibition at 10 μM) | − (“−” indicates less than 50% inhibition at 10 μM) | − (“−” indicates less than 50% inhibition at 10 μM) |  |  |  |  |  |  |  |  |  | 
4 | NCCCC(=O)NC1C(OCc2ccc(Cl)cc2)OC(COCc2ccc(Cl)cc2)C(O)C1OCc1ccc(Cl)cc1 (single isomer, unassigned) [compound 494] |  |  |  |  |  |  |  |  |  |  |  | − (“−” indicates less than 50% inhibition at 10 μM) | − (“−” indicates less than 50% inhibition at 10 μM) | + (“+” indicates greater than 50% inhibition at 10 μM) | + (“+” indicates greater than 50% inhibition at 10 μM) | + (“+” indicates greater than 50% inhibition at 10 μM) | − (“−” indicates less than 50% inhibition at 10 μM) | + (“+” indicates greater than 50% inhibition at 10 μM) | − (“−” indicates less than 50% inhibition at 10 μM) | + (“+” indicates greater than 50% inhibition at 10 μM) | A3: inhibition of radioligand binding, human melanocortin (MC3) (Human Melanocortin (MC3); [125I]-NDP-αMSH, 10 µM): + (“+” indicates greater than 50% inhibition at 10 μM); A11: inhibition of radioligand binding, mouse urotensin (mUR2) (Mouse urotensin (mUR2); [125I]-Urotensin II): − (“−” indicates less than 50% inhibition at 10 μM)
5 | COC1C(O)C(COCc2ccc3ccccc3c2)OC(OCc2ccc(Cl)cc2)C1NC(=O)CNC(=N)N (stereo not shown) [compound 350] |  |  |  |  |  |  |  |  |  |  |  | − (“−” indicates less than 50% inhibition at 10 μM) | − (“−” indicates less than 50% inhibition at 10 μM) | − (“−” indicates less than 50% inhibition at 10 μM) | + (“+” indicates greater than 50% inhibition at 10 μM) | − (“−” indicates less than 50% inhibition at 10 μM) | − (“−” indicates less than 50% inhibition at 10 μM) | + (“+” indicates greater than 50% inhibition at 10 μM) | − (“−” indicates less than 50% inhibition at 10 μM) | − (“−” indicates less than 50% inhibition at 10 μM) | A3: inhibition of radioligand binding, human melanocortin (MC3) (Human Melanocortin (MC3); [125I]-NDP-αMSH): − (“−” indicates less than 50% inhibition at 10 μM); A11: inhibition of radioligand binding, mouse urotensin (mUR2) (Mouse urotensin (mUR2); [125I]-Urotensin II): − (“−” indicates less than 50% inhibition at 10 μM)

— patent US20080009418A1, “Selective Inhibitors” (Alchemia LTD., priority 2004, published 2008)
